# Measured values from patent publication US10154988B2, “Methods and compositions for treating schizophrenia” (The Johns Hopkins University, priority 2012, dated 2018).
# What was measured:
# [1] = test system: MAM-treated rats; conditions: cited from earlier work
# [2] = test system: Memory-impaired aged rats; experiment: water maze probe test after chronic brivaracetam (osmotic mini-pumps); assay type: in vivo, rat; conditions: 2 mg/kg/day
# Method: (§1) The radial arm maze experiments uses acute administration of seletracetam (0-4 mg/kg), brivaracetam (0-4 mg/kg), or saline vehicle given by intraperitoneal injection (in a volume of 1 ml/kg) 30-40 min prior to test sessions. In the chronic treatment experiment, memory-impaired aged rats are implanted subcutaneously in the intrascapular region with osmotic mini-pumps (ALZET, Durect Corporation, Cupertino, Calif.) with brivaracetam (2 mg/kg/day) or saline vehicle starting two weeks prior to assessment in the water maze.
# Rats are trained and tested in a novel water maze environment to assess the effect of drug treatment. The water maze used here is housed in a different building and is surrounded by curtains with a novel set of patterns relative to the maze used for initial assessment of cognitive status. The training protocol consists of 6 trials per day for 2 days to locate a submerged escape platform. On each trial, a rat is released in the maze from one of four equally spaced starting positions around the perimeter of the pool. The starting position varies from trial to trial. […] The rat is then removed from the platform and placed in a holding cage for another 40 s before the next trial. Approximately 24 hrs after the last training trial, a probe test in the absence of the escape platform is given to assess spatial memory.
# [3] = test system: Memory-impaired aged rats; experiment: Radial Arm Maze task, 2-hr delay, acute brivaracetam or seletracetam; assay type: in vivo, rat; conditions: 0.0625-4 mg/kg i.p. 30-40 min before test; repeated measures ANOVA (brivaracetam p=0.039, seletracetam p=0.009)
# Method: as §1
# A radial arm maze (RAM) task is used to assess effects of acute drug treatment with seletracetam and brivaracetam. This protocol allows within-subject assessment across drugs at different doses. The radial maze consists of eight arms projecting from each side of an octagonal center platform, with a food well located at the distal end of each arm. Plexiglas blocks can be positioned to prevent entry into any arm. Extra-maze cues are provided in the room surrounding the maze and illumination is provided by an overhead light.
# Pre-training, as described in detail in Chappell et al. Neuropharmacology 37: 481-487, (1998), consists of habituation, standard win-shift training, and win-shift training with delays interposed between information and memory test phases. […]
# [4] = test system: MAM-treated rats; conditions: rat, in vivo; cited from earlier work
# [5] = test system: aged-impaired (AI) rats; experiment: eight-arm Radial Arm Maze task, one-hour delay (levetiracetam, valproate, combination); assay type: in vivo, rat; conditions: valproate on its own
# Method: The effects of levetiracetam on the spatial memory retention of aged-impaired (AI) rats are assessed in a Radial Arm Maze (RAM) behavioral task using vehicle control and five different dosage levels of levetiracetam (1.25 mg/kg/day, 2.5 mg/kg/day, 5 mg/kg/day, 10 mg/kg/day and 20 mg/kg/day). RAM behavioral tasks are preformed on ten AI rats. All six treatment conditions are tested on all ten rats, as described above for the MWM test. The RAM apparatus used consists of eight equidistantly-spaced arms. An elevated maze arm (7 cm width×75 cm length) projects from each facet of an octagonal center platform (30 cm diameter, 51.5 cm height). Clear side walls on the arms are 10 cm high and are angled at 65° to form a trough. A food well (4 cm diameter, 2 cm deep) is located at the distal end of each arm. Froot Loops™ (Kellogg Company) are used as rewards. Blocks constructed of Plexiglas™ (30 cm height×12 cm width) can be positioned to prevent entry to any arm. Numerous extra maze cues surrounding the apparatus are also provided. The AI rats are initially subjected to a pre-training test (Chappell et al. Neuropharmacology 37: 481-487, 1998). The pre-training test consists of a habituation phase (4 days), a training phase on the standard win-shift task (18 days) and another training phase (14 days) in which a brief delay is imposed between presentation of a subset of arms designated by the experimenter (e.g., 5 arms available and 3 arms blocked) and completion of the eight-arm win-shift task (i.e., with all eight arms available). In the habituation phase, rats are familiarized to the maze for an 8-minute session on four consecutive days. In each of these sessions food rewards are scattered on the RAM, initially on the center platform and arms and then progressively confined to the arms. After this habituation phase, a standard training protocol is used, in which a food pellet is located at the end of each arm. Rats receive one trial each day for 18 days. Each daily trial terminates when all eight food pellets have been obtained or when either 16 choices are made or 15 minutes had elapsed. After completion of this training phase, a second training phase is carried out in which the memory demand is increased by imposing a brief delay during the trial. At the beginning of each trial, three arms of the eight-arm maze are blocked. Rats are allowed to obtain food on the five arms to which access is permitted during this initial ‘information phase’ of the trial. Rats are then removed from the maze for 60 seconds, during which time the barriers on the maze are removed, thus allowing access to all eight arms. Rats are then placed back onto the center platform and allowed to obtain the remaining food rewards during this ‘retention test’ phase of the trial. The identity and configuration of the blocked arms varies across trials. The number of “errors” the AI rats make during the retention test phase is tracked. An error occurs in the trial if the rats enter an arm from which food had already been retrieved in the pre-delay component of the trial, or if it re-visits an arm in the post-delay session that has already been visited. After completion of the pre-training test, rats are subjected to trials with more extended delay intervals, i.e., a one-hour delay, between the information phase (presentation with some blocked arms) and the retention test (presentation of all arms). During the delay interval, rats remain off to the side of the maze in the testing room, on carts in their individual home cages. AI rats are pretreated 30-40 minutes before daily trials with a one-time shot of the following six conditions: 1) vehicle control (0.9% saline solution); 2) levetiracetam (1.25 mg/kg/day); 3) levetiracetam (2.5 mg/kg/day); 4) levetiracetam (5 mg/kg/day); 5) levetiracetam (10 mg/kg/day); 6) levetiracetam (20 mg/kg/day); […] Injections are given every other day with intervening washout days. Each AI rat is treated with all six conditions within 23 days of testing. […]
compound,measurement,setting,value
C#Cc1ccc2c(c1)C(c1ccccc1F)=N[C@H](C)c1c(C(=O)OCC)ncn1-2 [SH-053-2′F—R—CH3],increased locomotor response to amphetamine in MAM-treated rats,"[1]; rat, in vivo",reduced
same,cortical-evoked responses of HPC neurons,[1]; saline-treated and MAM-treated animals,diminished cortical-evoked responses
same,number of spontaneously active DA neurons in the VTA of MAM rats,"[1]; systemic or infused into the ventral HPC, to levels of saline-treated rats",reduces the number of spontaneously active DA neurons
CCC[C@@H]1CC(=O)N([C@@H](CC)C(N)=O)C1 [brivaracetam],spatial bias for the target quadrant compared to the other quadrants,"[2]; 14 days, n=3/group, t(2)=10.000, p=0.010",significant spatial bias
same,time in the target annulus versus vehicle-treated rats,"[2]; t(4)=3.109, p=0.036",significantly more time in the target annulus
same,time in the target quadrant versus vehicle-treated rats,"[2]; t(4)=3.881, p=0.018",significantly more time in the target quadrant
same,"number of errors in the retention phase after the 2-hr delay, effect of dose",[3],significant effect as a function of dose
CC[C@@H](C(N)=O)N1C[C@H](C=C(F)F)CC1=O [seletracetam],"number of errors in the retention phase after the 2-hr delay, effect of dose",[3],significant effect as a function of dose
NC1=N[C@H](O)[C@H]2[C@H]3O[C@]4(O)O[C@@H]([C@@H](O)[C@@]2(N1)[C@@H]4O)[C@]3(O)CO [tetrodotoxin],augmented amphetamine-induced locomotor behavior,[4],normalized
same,elevated DA neuron population activity,[4],completely reversed
CCCC(CCC)C(=O)O [valproate],reducing the number of errors in the radial arm maze,[5]; 25 mg/kg subcutaneous,not at 25 mg/kg or 50 mg/kg
same,reducing the number of errors in the radial arm maze,[5]; 50 mg/kg subcutaneous,not at 25 mg/kg or 50 mg/kg
same,reducing the number of errors in the radial arm maze,[5]; 100 mg/kg subcutaneous,effective at 100 mg/kg
